# Measurements: patent US20220323471A1 (priority 2019, published 2022)
# Assays:
# ZIKV strain MR766 = experiment: In situ (+)-ZIKV RNA hybridization in VERO cells; assay type: cell-based, Zika virus; conditions: MOI 0.5, 1 μM, 48 hours
# Experimental: To determine the ZIKV life cycle stage at which DGP acts, two approaches were used to measure the production of viral RNA: 1) In situ hybridization to image viral RNA by using fluorescent probes, and 2) Reverse transcription PCR (qRT-PCR) to quantify viral RNA. […] At 48 hours post-infection, cells were fixed/permeabilized and ZIKV positive-strand RNA and detected by in situ hybridization using a specific fluorescently labeled negative-strand probe (green) and cell nuclei were stained using 4%6-diamidino-2-phenylindole (DAPI; blue). Twenty-five random images were captured for each treatment (Mock, ZIKV MR766, and ZIKV MR766+DGP 1 μM). To quantify the extent of infection, 400 cells per treatment were randomly counted and the percentage of infected (green) cells were calculated.
# ZIKV RNA in cultured adherent cells was probed using the RNAscope reagents and protocol (Advanced Cell Diagnostics) (Wang, F. et al. 2012, “RNAscope: a novel in situ RNA analysis platform for formalin-fixed, paraffin-embedded tissues.” J Mol Diagn 14(1): 22-29) with some modifications as previously described (Puray-Chavez, M. 2017, “Multiplex single-cell visualization of nucleic acids and protein during HIV infection.” Nat Commun 8(1): 1882. Fixed cells on coverslips were washed twice with PBS, then incubated with 0.1% Tween-20 in PBS (PBS-T) for 10 min at room temperature (RT) and washed in PBS for 1 min. […]
# ZIKV MR766 = experiment: qRT-PCR quantification of ZIKV RNA in cells; assay type: cell-based, Zika virus; conditions: VERO and HT1080 cells; MOI 1; 48 hours; increasing concentrations
# Experimental: To corroborate these findings, quantitative real-time PCR (qRT-PCR) was used to quantify viral RNA using specific primers for the ZIKV genome (FIG. 3A). VERO and HT1080 cells were challenged with ZIKV at an MOI of 1 in the presence of DGP at the indicated concentrations. At 48 hours post-infection, ZIKV RNA was quantified by qRT-PCR, and normalized to Actin. […] Inhibition of viral RNA production correlated with the inhibition of viral infection (compare FIG. 3A with FIG. 3B).
# To detect viral copies of ZIKV and Sendai Virus (SeV) by qRT-PCR, cells were seeded in 24-well plates, with or without DGP treatment, and infected with the virus at the indicated MOI for 48 h. After the incubation period, total RNA from HT1080, VERO, and CHME3 cells was isolated and purified using Trizol (Invitrogen). For detection of ZIKV viral load in brain and spleen, 3 mice were sacrificed at 6 days post-infection and total RNA was extracted from the brain and spleen. For cDNA synthesis, 1 ng of total RNA was reverse transcribed. The reaction mixture included 1 mM of deoxyribonucleotide phosphates (dNTPs), 2 nM of the specific reverse primer of ZIKV or SeV, 1× M-MULV buffer, 10 U M-MuLV RT (BioLabs), and 2 U of RNase Inhibitor. The reaction mixture was incubated for 1 hour at 42° C. followed by 20 min at 65° C. to inactivate the enzyme. […]
# ZIKV RNA levels were measured using real-time PCR. […]
smiles,measurement,setting,value
"COc1cc2c(OC3OC(C)C(O)C(O)C3O)c3c(c(-c4ccc5c(c4)OCO5)c2cc1OC)C(=O)OC3 (stereo not drawn) [DGP, 6-deoxyglucose-diphyllin]",% Infected Cells,ZIKV strain MR766,3.05%
same,Infected Cells (Green),ZIKV strain MR766; of 400 cells counted,12
same,synthesis of viral RNA (normalized to Actin),ZIKV MR766,completely inhibited
